Reference: patent US20210395652A1, “TEXTILE TREATMENT COMPOSITIONS” (priority 2020, published 2021)
Like-named read-outs stand apart in the source and are kept apart here.

Key:
[1] = system: NCTC clone 1469 cells; assay: Cytotoxicity control of the treated fabric test; type: cell-based, mouse; conditions: Formaldehyde control
Procedure: Controls were untreated fabric pieces of the same size. After incubation with the virus for 15, 30 or 60 minutes the samples were neutralized with D/E broth, vortexed to remove the virus from the fabric and passed over a Sephadex LH-20 column to remove potential cytotoxic substances. Serial dilutions of the column eluates were used to inoculate NCTC clone 1469 cells in a 96 well plate to determine the TCID50 for the virus at each time. After 14 days the wells were examined for cytopathological effects (CPE) in the cells and scored accordingly.

[2] = system: NCTC clone 1469 cells; conditions: mouse, pH 7.3

C=O [Formaldehyde]
dilution to which all cells were killed [1]: killed all cells to the 10^−2 dilution | dilution to which all cells were killed [2]: killed all cells to the 10^4 dilution
